# Tested on: Aedes aegypti mosquitoes
# Experiment: in vitro Gupta box landing assay (insect repellency)
# Settings: 1% in IPA, 25 μl on Baudruche membrane over bovine blood at 37° C.; about 250 4-day-old female mosquitoes; probing recorded at 2 minute intervals over 20 minutes; mean of three replicates; compared with prior-art DHN materials
# Method: The product of Example 1 is evaluated for insect repellency in a comparison test with DHN stereoisomers prepared according to prior-art methods, and against the major commercial insect repellent composition, DEET (N,N-diethyl-m-toluamide). As a control, neat iso-propanol (IPA) is employed as well. Repellency is determined against Aedes aegypti mosqutioes in the in vitro Gupta box landing assay. In this method a chamber contains 5 wells, each covered by a Baudruche (animal intestine) membrane. Each well is filled with bovine blood, containing sodium citrate (to prevent clotting) and ATP (72 mg ATP disodium salt per 26 ml of blood), and heated to 37° C. A volume of 25 μl of isopropyl alcohol (IPA) containing one test specimen or control is applied to each membrane. The concentrations are all 1% in IPA except where otherwise indicated. Controls are either neat IPA, an untreated membrane surface, or a membrane surface treated with a 1% solution of DEET. After 5 min, approximately 250 4-day-old female Aedes aegypti mosquitoes are introduced into the chamber. The number of mosquitoes probing the membranes for each treatment is recorded at 2 minute intervals over 20 minutes. Each datum represents the mean of three replicate experiments.
compound,measurement,value
"CC1COC(=O)C2C(C)CCC12 (single isomer, unassigned) [DHN Structure F]","repellent efficacy (mean number of landings over elapsed time, FIG. 3)",compared well in repellent efficacy

# Reference: patent publication US20050137252A1, “Production of dihydronepetalactone” (priority 2003, published 2005)
